{"source": "paper PMC5577601", "about": "“The Neuroprotective Marine Compound Psammaplysene A Binds the RNA-Binding Protein HNRNPK” (Marine Drugs, 2017)", "target": "T1, HNRNPK (Homo sapiens, UniProt P61978)", "T1 construct": "GST-HNRNPK", "assay": "surface plasmon resonance (Biacore […]), RNA-saturated GST-HNRNPK vs GST; a second estimate vs GST-HNRNPI gave Kd […]", "format": "binding"}
{"smiles": "CN(C)CCCOc1c(Br)cc(/C=C/C(=O)NCCCOc2c(Br)cc(CCN(C)C)cc2Br)cc1Br", "note": "[PA, Psammaplysene A]", "values": [{"measurement": "Kd", "result": 77.3, "unit": "µM"}]}
